Common to all, as to type: cell-based
One assay concerns the target T1, CRHR2 (Homo sapiens, UniProt Q13324).
T1 sequence (Q13324 1-411): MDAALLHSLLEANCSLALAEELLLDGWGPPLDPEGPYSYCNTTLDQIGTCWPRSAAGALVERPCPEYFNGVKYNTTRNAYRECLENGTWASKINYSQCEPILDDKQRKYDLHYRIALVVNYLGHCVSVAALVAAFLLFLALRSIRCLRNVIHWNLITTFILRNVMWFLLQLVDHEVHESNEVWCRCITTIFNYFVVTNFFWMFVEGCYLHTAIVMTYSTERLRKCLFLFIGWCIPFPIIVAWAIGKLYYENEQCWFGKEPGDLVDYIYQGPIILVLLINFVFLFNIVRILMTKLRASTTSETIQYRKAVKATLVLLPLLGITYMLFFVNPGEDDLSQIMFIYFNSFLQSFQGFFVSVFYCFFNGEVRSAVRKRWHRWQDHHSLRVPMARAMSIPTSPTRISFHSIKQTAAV
Put plainly: CRHR2 antagonistic activity (inhibitory activity against CRHR2).

The target in a further assay is T2, human CRHR2-alpha (Homo sapiens, UniProt Q13324).
T2 sequence (Q13324 1-411): T1 sequence (Q13324 1-411)
Put plainly: cAMP functional assay for human CRHR2 (LANCE Ultra cAMP, TR-FRET). The conditions noted are these: CHO-K1 cells expressing human CRHR2-alpha, agonist human urocortin2 at EC80, cAMP; read-out: IC50 against CRHR2. In short, it runs like this:
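Antagonism measured in CHO-K1 cells stably expressing the receptor, serum-starved 7 h then cryopreserved. Thawed cells in HBSS buffer with 0.1% BSA, 0.5 mM IBMX, 5 mM Hepes pH 7.4 were preincubated with compound 30 min at 25° C, then stimulated 30 min with EC80 agonist: urocortin2 for CRHR2, CRF for CRHR1.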

Another assay addresses T3, human CRHR1-beta (Homo sapiens, UniProt P34998).
T3 sequence (P34998 24-444 isoform P34998-1 limits assumed): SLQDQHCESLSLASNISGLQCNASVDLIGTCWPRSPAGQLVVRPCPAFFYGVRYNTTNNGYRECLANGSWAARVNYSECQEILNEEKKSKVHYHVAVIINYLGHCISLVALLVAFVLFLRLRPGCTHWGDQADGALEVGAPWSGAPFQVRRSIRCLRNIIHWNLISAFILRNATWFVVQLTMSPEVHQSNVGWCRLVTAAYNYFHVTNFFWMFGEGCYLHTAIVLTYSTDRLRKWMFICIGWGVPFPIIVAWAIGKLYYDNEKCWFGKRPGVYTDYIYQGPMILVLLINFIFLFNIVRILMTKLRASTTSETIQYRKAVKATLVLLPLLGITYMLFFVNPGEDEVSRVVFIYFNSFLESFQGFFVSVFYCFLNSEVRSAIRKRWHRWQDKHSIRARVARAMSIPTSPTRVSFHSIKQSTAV
Kind of assay: cAMP functional assay for human CRHR1 (LANCE Ultra cAMP, TR-FRET). The conditions noted are these: CHO-K1 cells expressing human CRHR1-beta, agonist CRF at EC80, cAMP; read-out: IC50 against CRHR1. As to the method:
cAMP functional assay for human CRHR1 and CRHR2
The ability of the compounds of this invention to inhibit either CRHR2 or CRHR1 is assessed by 3′,5′-cyclic adenosine monophosphate (cAMP) production in cells using the LANCE Ultra cAMP assay kit (ParkinElmer), which are designed based on the homogeneous time-resolved fluorescence resonance energy transfer (TR-FRET) immunoassay.
CHO-K1 (Chinese hamster ovary) cells stably expressing either human CRHR2-alpha (DiscoveRX, Cat. 95-0048C2) or human CRHR1-beta (DiscoveRX, Cat. 95-0047C2) are grown in HAM's F12 media supplemented with 10% fetal bovine serum (FBS), 100 units/mL penicillin, 100 microg/mL hygromycin and 0.5 microg/mL geneticin at 37° C. in 5% CO2 humidified incubator to 80% confluence. After 7 hours starvation treatment in culture media containing 0.1% FBS, the cells are washed with Hanks balanced salt solution (HBSS) and cryopreserved.
For cAMP assay, frozen cells are thawed and washed with HBSS, followed by resuspended in assay buffer (HBSS containing 0.1% bovine serum albumin, 0.5 mM isobutylmethylxanthine and 5 mM Hepes, pH 7.4) at the appropriate concentration for the assay. The cell suspensions are plated on 384-well microplates (Greiner Bio-One) at a density of 4,000 cells per well. After preincubating the cells with various concentrations of the compounds for 30 min at 25° C., an assay buffer containing EC80 concentration of each agonist is added and the cells are incubated for 30 min at 25° C. Human urocortin2 (Peptide Institute) and CRF (Peptide Institute) are used as agonists for CRHR2 and CRHR1, respectively. For the termination of assay, europium-labeled cAMP tracer and ULight (registered trademark) dye labeled cAMP antibodies, both prepared with Lance-Ultra cAMP detection reagent (Perkin Elmer) are added in the plate and incubate for 60 min at 25° C. After incubation, TR-FRET signal is detected by EnVision plate reader (PerkinElmer). The IC50 values for compounds are calculated from dose-response curves by fitting the percent inhibition using XLfit (ID Business Solutions).

Broadly, the IC50 is the concentration at which inhibition is half-maximal. `Cc1ncc(Cl)cc1C(=O)N[C@H]1CC[C@H](Cn2c(=O)n(-c3cccnc3)c3ccccc32)CC1` [Example 156, 5-chloro-2-methyl-N-((1r,4r)-4-((2-oxo-3-(pyridin-3-yl)-2,3-dihydro-1H-benzo[d]imidazol-1-yl)methyl)cyclo-hexyl)nicotinamide]: the IC50 at CRHR2 was 280 nM; at human CRHR2-alpha, less than 300 nM.

Take `Cc1ncc(Cl)cc1C(=O)N[C@H]1CC[C@H](Cn2c(=O)n(-c3cnc4c(ccn4C)c3)c3ccccc32)CC1` [Example 148, 5-chloro-2-methyl-N-((1r,4r)-4-((3-(1-methyl-1H-pyrrolo [2,3-b]pyridin-5-yl)-2-oxo-2,3-dihydro-1H-benzo[d]imidazol-1-yl)methyl)cyclo-hexyl)nicotinamide]: the IC50 was 60 nM against CRHR2 and less than 300 nM at human CRHR2-alpha.

Turning to `Cc1ncc(Cl)cc1C(=O)N[C@H]1CC[C@H](Cn2c(=O)n(-c3cnc4[nH]ncc4c3)c3ccccc32)CC1` [Example 128, 5-chloro-2-methyl-N-((1r,4r)-4-((2-oxo-3-(1H-pyrazolo[3,4-b]pyridin-5-yl)-2,3-dihydro-1H-benzo[d]imidazol-1-yl)methyl)cyclohexyl)nicotinamide], the IC50 on CRHR2 is 280 nM; on human CRHR2-alpha, less than 300 nM.

Regarding `COc1ccc(-n2c(=O)n(C[C@H]3CC[C@H](NC(=O)c4cc(Cl)cnc4C)CC3)c3ccccc32)cn1` [Example 30, 5-chloro-N-((1r,4r)-4-((3-(6-methoxypyridin-3-yl)-2-oxo-2,3-dihydro-1H-benzo[d]imidazol-1-yl)methyl)cyclohexyl)-2-methylnicotinamide], the half-inhibitory concentration (IC50) is less than 1000 nM on human CRHR1-beta, 60 nM on CRHR2 and less than 300 nM at human CRHR2-alpha.

For `Cc1ncc(Cl)cc1C(=O)N[C@H]1CC[C@H](Cn2c(=O)n(Cc3ccccc3)c3ccccc32)CC1` [Example 2, N-((1r,4r)-4-((3-benzyl-2-oxo-2,3-dihydro-1H-benzo[d]imidazol-1-yl)methyl)cyclohexyl)-5-chloro-2-methylnicotinamide], the half-maximal inhibitory concentration (IC50) is 180 nM at CRHR2 and less than 300 nM at human CRHR2-alpha.

(Values after US11802120B2, “Fused cyclic urea derivatives as CRHR2 antagonist” (RaQualia Pharma Inc., priority 2018, dated 2023).)
